Reference: US11021457B2, “Class of isoindolone-imide ring-1,3-dione-2-ene compounds, composition and use thereof” (WIGEN BIOMEDICINE TECHNOLOGY (SHANGHAI) CO., LTD., priority 2017, dated 2021)

Assays:
BxPC-3 = experiment: Inhibition of tumor cell proliferation, CellTiter-Glo, BxPC-3; assay type: cell-based; settings: compound concentration 50 μM, 72 hours
How it was run: (§1)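 Activity is graded from survival at 50 μM: + for 60 to under 90%, ++ for over 30 to 60%, +++ for 30% or less. Survival was measured luminescently (CellTiter-Glo) 72 h after dosing, relative to untreated and blank wells; 2000-10000 cells/well, 37° C, 5% CO2.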

K562 = experiment: Inhibition of tumor cell proliferation, CellTiter-Glo, K562; assay type: cell-based; settings: compound concentration 50 μM, 72 hours
How it was run: as §1

A549 = experiment: Inhibition of tumor cell proliferation, CellTiter-Glo, A549; assay type: cell-based; settings: compound concentration 50 μM, 72 hours
How it was run: as §1

RPMI-8226 = experiment: Inhibition of tumor cell proliferation, CellTiter-Glo, RPMI-8226; assay type: cell-based; settings: compound concentration 50 μM, 72 hours
How it was run: as §1

MDA-MB-453 = experiment: Inhibition of tumor cell proliferation, CellTiter-Glo, MDA-MB-453; assay type: cell-based; settings: compound concentration 50 μM, 72 hours
How it was run: as §1

LC3B = LC3B (Homo sapiens (Human), UniProt Q9GZQ8); experiment: Fluorescence polarization experiment targeting LC3B (GST-LC3B with FITC-labeled peptide); settings: GST-LC3B 180 nM, FITC-labeled peptide 18 nM, 25° C.
SU-DHL6 = experiment: Inhibition of tumor cell proliferation, CellTiter-Glo, SU-DHL6; assay type: cell-based; settings: compound concentration 50 μM, 72 hours
How it was run: as §1

Structure (SMILES)	Inhibitory activity against proliferation (cell survival rate) BxPC-3 (BxPC-3)	Inhibitory activity against proliferation (cell survival rate) K562 (K562)	Inhibitory activity against proliferation (cell survival rate) A549 (A549)	Inhibitory activity against proliferation (cell survival rate) RPMI-8226 (RPMI-8226)	Inhibitory activity against proliferation (cell survival rate) MDA-MB-453 (MDA-MB-453)	IC50 (LC3B) [µM]	Inhibitory activity against proliferation (cell survival rate) SU-DHL6 (SU-DHL6)
O=C1CCC(N2Cc3c(NC(=O)c4ccc(NC=C5C(=O)CC(c6ccccc6)CC5=O)cc4)cccc3C2=O)C(=O)N1 (centres unmarked) [Compound 50]	+ (60≤survival rate (%)<90)	+ (60≤survival rate (%)<90)	+ (60≤survival rate (%)<90)	++ (30<survival rate (%)≤60)	+ (60≤survival rate (%)<90)	15 to 100	+++ (survival rate (%)≤30)
CC(C)[C@H](NC=C1C(=O)CC(c2ccccc2)CC1=O)C(=O)N[C@@H](CCCNC(N)=O)C(=O)Nc1cccc2c1CN(C1CCC(=O)NC1=O)C2=O (some centres unmarked) [Compound 59]	++ (30<survival rate (%)≤60)	+++ (survival rate (%)≤30)	+++ (survival rate (%)≤30)	+++ (survival rate (%)≤30)	+ (60≤survival rate (%)<90)	100 to 1000	+++ (survival rate (%)≤30)
O=C1CCC(N2Cc3c(NC(=C4C(=O)CC(c5ccccc5)CC4=O)c4ccccc4)cccc3C2=O)C(=O)N1 (centres unmarked) [Compound 75]	+ (60≤survival rate (%)<90)	+++ (survival rate (%)≤30)	+++ (survival rate (%)≤30)	+++ (survival rate (%)≤30)	+++ (survival rate (%)≤30)	100 to 1000	+++ (survival rate (%)≤30)
CC(C)[C@H](NC(=O)CCC(=O)OCCN1CCN(CCNC=C2C(=O)CC(c3ccccc3)CC2=O)CC1)C(=O)N[C@@H](CCCNC(N)=O)C(=O)Nc1ccc(COC(=O)Nc2cccc3c2CN(C2CCC(=O)NC2=O)C3=O)cc1 (some centres unmarked) [Compound 89]	+ (60≤survival rate (%)<90)	++ (30<survival rate (%)≤60)	++ (30<survival rate (%)≤60)	++ (30<survival rate (%)≤60)	+++ (survival rate (%)≤30)	15 to 100	++ (30<survival rate (%)≤60)
CC(C)[C@H](NC(=O)CN1CCN(CCNC=C2C(=O)CC(c3ccccc3)CC2=O)CC1)C(=O)N[C@@H](CCCNC(N)=O)C(=O)Nc1ccc(COC(=O)Nc2cccc3c2CN(C2CCC(=O)NC2=O)C3=O)cc1 (some centres unmarked) [Compound 90]	++ (30<survival rate (%)≤60)	+++ (survival rate (%)≤30)	++ (30<survival rate (%)≤60)	++ (30<survival rate (%)≤60)	++ (30<survival rate (%)≤60)	15 to 100	+++ (survival rate (%)≤30)
